Where “and” joins values, the source holds several entries; their conditions need not be identical. Identical values can stand only once. Counter-ions that a name gives are not always drawn.
The molecules below were run against purified PARP protein (Homo sapiens, UniProt P09874) (assay: PARP enzyme inhibition assay). Details: 20 nM purified PARP (5 nM for tight-binding inhibitors), 500 μM NAD+, 25° C.; several values in one cell = repeat determinations; read-out: Inhibition Constant Ki.
Type: biochemical

Sequence of purified PARP protein (P09874 whole entry): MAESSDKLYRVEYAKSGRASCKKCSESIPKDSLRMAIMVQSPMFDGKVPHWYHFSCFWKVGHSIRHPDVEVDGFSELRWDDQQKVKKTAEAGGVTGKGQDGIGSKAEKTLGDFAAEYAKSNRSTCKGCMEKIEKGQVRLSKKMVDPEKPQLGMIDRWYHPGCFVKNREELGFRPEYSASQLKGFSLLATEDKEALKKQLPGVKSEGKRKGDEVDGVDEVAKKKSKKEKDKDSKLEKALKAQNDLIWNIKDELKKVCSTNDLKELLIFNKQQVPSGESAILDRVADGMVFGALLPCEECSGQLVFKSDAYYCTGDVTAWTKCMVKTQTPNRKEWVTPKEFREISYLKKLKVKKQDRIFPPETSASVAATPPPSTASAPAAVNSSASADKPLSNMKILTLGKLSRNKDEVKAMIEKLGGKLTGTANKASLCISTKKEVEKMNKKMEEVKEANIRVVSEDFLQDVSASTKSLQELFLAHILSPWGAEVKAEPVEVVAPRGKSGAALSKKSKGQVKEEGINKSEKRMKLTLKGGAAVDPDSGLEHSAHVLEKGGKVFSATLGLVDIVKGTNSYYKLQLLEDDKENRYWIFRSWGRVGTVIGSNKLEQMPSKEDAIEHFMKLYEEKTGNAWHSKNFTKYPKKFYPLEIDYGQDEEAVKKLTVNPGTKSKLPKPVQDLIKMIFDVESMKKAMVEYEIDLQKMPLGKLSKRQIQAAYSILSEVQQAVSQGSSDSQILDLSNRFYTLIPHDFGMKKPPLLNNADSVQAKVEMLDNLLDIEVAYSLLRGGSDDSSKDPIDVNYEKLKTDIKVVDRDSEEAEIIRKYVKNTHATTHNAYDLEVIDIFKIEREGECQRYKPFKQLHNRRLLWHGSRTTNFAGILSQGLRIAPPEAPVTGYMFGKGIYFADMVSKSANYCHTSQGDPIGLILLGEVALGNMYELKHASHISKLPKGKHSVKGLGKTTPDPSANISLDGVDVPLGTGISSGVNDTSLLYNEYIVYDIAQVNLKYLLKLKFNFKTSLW

SMILES | Ki
COc1ccc(C2CNC(=O)c3cccc4[nH]c(=O)n2c34)cc1 (racemic) [Example 53, (RS)-(±)-9-(4-Methoxy-phenyl)-8,9-dihydro-2H,7H-2,7,9a-triaza-benzo[cd]azulene-1,6-dione] | 1800 nM
COc1ccc(C2CNC(=O)c3cccc4nc(-c5ccc(Cl)cc5)n2c34)cc1 (racemic) [Example 54, (RS)-(±)-1-(4-Chloro-phenyl)-9-(4-methoxy-phenyl)-8,9-dihydro-7H-2,7,9a-triaza-benzo[cd]azulen-6-one] | 600 nM
O=C1NCCn2c(-c3ccco3)nc3cccc1c32 [Example 20, 1-Furan-2-yl-8,9-dihydro-7H-2,7,9a-triaza-benzo[cd]azulen-6-one] | 11.9 nM
O=C1NCCn2c(Cc3ccccc3)nc3cccc1c32 [Example 21, 1-Benzyl-8,9-dihydro-7H-2,7,9a-triaza-benzo[cd]azulen-6-one] | 13.7 nM and 13 nM
O=C1NCCn2c(C3CCCCC3)nc3cccc1c32 [Example 24, 1-Cyclohexyl-8,9-dihydro-7H-2,7,9a-triaza-benzo[cd]azulen-6-one] | 29 nM
O=C1NCCn2c(S)nc3cccc1c32 [Example 28, 1-Mercapto-8,9-dihydro-7H-2,7,9a-triaza-benzo[cd]azulen-6-one] | 10 nM
O=C1NCCn2c(-c3ccccc3)cc3cccc1c32 [Example 33, 6-Phenyl-3,4-dihydro-2H-[1,4]diazepino[6,7,1-hi]indol-1-one] | 14.3 nM
O=Cc1c(-c2ccc(Cl)cc2)n2c3c(cccc13)C(=O)NCC2 [Example 38, 6-(4-Chloro-phenyl)-1-oxo-1,2,3,4-tetrahydro-[1,4]diazepino[6,7,1-hi]indole-7-carboxaldehyde] | 43 nM
O=C1NCCN2CCc3cccc1c32 [Example 41, 3,4,6,7-Tetrahydro-2H-[1,4]diazepino[6,7,1-hi]indol-1-one, reference compound] | 54 nM and 60 nM
COC(=O)c1cn2c3c(cccc13)C(=O)NCC2 [Example 44] | 900 nM
O=Cc1cn2c3c(cccc13)C(=O)NCC2 [Example 45, 1-Oxo-1,2,3,4-tetrahydro-[1,4]diazepino[6,7,1-hi]indole-7-carbaldehyde] | 167 nM and 185 nM
Cc1cn2c3c(cccc13)C(=O)NCC2 [Example 49, 7-Methyl-3,4-dihydro-2H-[1,4]diazepino[6,7,1-hi]indol-1-one] | 122 nM
Cc1c(-c2cccc(C(F)(F)F)c2)n2c3c(cccc13)C(=O)NCC2 [Example 52, 6-(3-Trifluoromethyl-phenyl)-7-methyl-3,4-dihydro-2H-[1,4]diazepino[6,7,1-hi]indol-1-one] | 79 nM
O=C1NCCn2c(-c3ccc(CO)cc3)nc3cccc1c32 [Example 58a, 1-(4-hydroxymethyl-phenyl)-8,9-dihydro-7H-2,7,9a-triaza-benzo[cd]azulen-6-one] | 4.2 nM
O=C1NCCn2c(-c3ccc(-c4ccc(Cl)cc4)o3)nc3cccc1c32 [Example 96, 1-[5-(4-Chlorophenyl)-furan-2-yl]-8,9-dihydro-7H-2,7,9a-triaza-benzo[cd]azulen-6-one] | 10 nM
CN(C)CCCOc1ccc(-c2nc3cccc4c3n2CCNC4=O)cc1 [Example 121, 1-[4-(3-Dimethylamino-propoxy)-phenyl]-8,9-dihydro-7H-2,7,9a-triaza-benzo[cd]azulen-6-one] | 4 nM
C[N+](C)([O-])Cc1ccc(-c2nc3cccc4c3n2CCNC4=O)cc1 [Example 131] | 22 nM
CC(C)(C)OC(=O)N1CCCC(c2ccc(-c3nc4cccc5c4n3CCNC5=O)cc2)C1 (stereo not drawn) [Example 143, 3-[4-(6-oxo-6,7,8,9-Tetrahydro-2,7,9a-triaza-benzo[cd]azulen-1-yl)-phenyl]-piperidine-1-carboxylic Acid t-Butyl Ester] | 22 nM
Nc1nc2cccc3c2n1CCNC3=O [Example 146, 1-Amino-8,9-dihydro-7H-2,7,9a-triaza-benzo[cd]azulen-6-one Hydrochloride] | 35 nM
O=C1NCCn2c(-c3ccc(C4CCCCN4CC4CC4)cc3)nc3cccc1c32 (stereo not drawn) [Example 150, 1-[4-(1-Cyclopropylmethyl-piperidin-2-yl)-phenyl]-8,9-dihydro-7H-2,7,9a-triaza-benzo[cd]azulen-6-one] | 5 nM
N/N=C(\N)c1c(-c2ccc(F)cc2)n2c3c(cccc13)C(=O)NCC2 [Example 156, 7-Formyl-6-(4-fluorophenyl)-1-oxo-3,4-dihydro-[1,4]diazepino[6,7,1-hi]indole Amidrazone Hydrochloride] | 57 nM

SMILES | Ki
O=C1NCCn2c(-c3ccc(CN4CCC(O)C4)cc3)nc3cc(F)cc1c32 (stereo not drawn) [Example 172, 4-Fluoro-1-[4-(3-hydroxy-pyrrolidin-1-ylmethyl)-phenyl]-8,9-dihydro-7H-2,7,9a-triaza-benzo[cd]azulen-6-one] | 4.6 nM
O=C1NCCn2c(-c3ccc(CN4CCC[C@@H]4CO)cc3)nc3cccc1c32 [Example 173, 1-[4-((2R)-2-Hydroxymethyl-pyrrolidin-1-ylmethyl)-phenyl]-8,9-dihydro-7H-2,7,9a-triaza-benzo[cd]azulen-6-one] | 6.3 nM
O=C1NCCn2c(-c3ccc(CN4CCCC(CO)C4)cc3)nc3cccc1c32 (stereo not drawn) [Example 175, 1-[4-(3-Hydroxymethyl-piperidin-1-ylmethyl)-phenyl]-8,9-dihydro-7H-2,7,9a-triaza-benzo[cd]azulen-6-one] | 6.6 nM
CN(Cc1ccc(-c2nc3cccc4c3n2CCNC4=O)cc1)CC(O)CO (stereo not drawn) [Example 176, 1-(4-{[(2,3-Dihydroxy-propyl)-methyl-amino]-methyl}-phenyl)-8,9-dihydro-7H-2,7,9a-triaza-benzo[cd]azulen-6-one] | 9 nM
C=CCN1CCN(Cc2ccc(-c3nc4cccc5c4n3CCNC5=O)cc2)CC1 [Example 178, 1-[4-(4-Allyl-piperazin-1-ylmethyl)-phenyl]-2,7,8,9-tetrahydro-2,7,9a-triaza-benzo[cd]azulen-6-one] | 12 nM
CN(CCc1ccccc1)Cc1ccc(-c2nc3cccc4c3n2CCNC4=O)cc1 [Example 179, 1-{4-[(Methyl-phenethyl-amino)-methyl]-phenyl}-2,7,8,9-tetrahydro-2,7,9a-triaza-benzo[cd]azulen-6-one] | 5.6 nM
CCCCN(CCO)Cc1ccc(-c2nc3cccc4c3n2CCNC4=O)cc1 [Example 180, 1-(4-{[Butyl-(2-hydroxy-ethyl)-amino]-methyl}-phenyl)-2,7,8,9-tetrahydro-2,7,9a-triaza-benzo[cd]azulen-6-one] | 7.4 nM
O=C1NCCn2c(-c3ccc(CN4CCC[C@H]4CO)cc3)nc3cccc1c32 [Example 181, 1-[4-((2S)-2-Hydroxymethyl-pyrrolidin-1-ylmethyl)-phenyl]-2,7,8,9-tetrahydro-2,7,9a-triaza-benzo[cd]azulen-6-one] | 3.9 nM
O=C1NCCn2c(-c3ccc(CN4CC=CCC4)cc3)nc3cccc1c32 [Example 182, 1-[4-(3,6-Dihydro-2H-pyridin-1-ylmethyl)-phenyl]-2,7,8,9-tetrahydro-2,7,9a-triaza-benzo[cd]azulen-6-one] | 4.7 nM
O=C1NCCn2c(-c3ccc(CNCCc4ccccc4)cc3)nc3cccc1c32 [Example 183, 1-[4-(Phenethylamino-methyl)-phenyl]-2,7,8,9-tetrahydro-2,7a-triaza-benzo[cd]azulen-6-one] | 8 nM
O=C1NCCn2c(-c3ccc(CNCCc4ccc(F)cc4)cc3)nc3cccc1c32 [Example 185, 1-(4-{[2-(4-Fluoro-phenyl)-ethylamino]-methyl}-phenyl)-2,7,8,9-tetrahydro-2,7,9a-triaza-benzo[cd]azulen-6-one] | 5.6 nM
CC(C)CN(C)Cc1ccc(-c2nc3cccc4c3n2CCNC4=O)cc1 [Example 187, 1-{4-[(Isobutyl-methyl-amino)-methyl]-phenyl}-8,9-dihydro-7H-2,7,9a-triaza-benzo[cd]azulen-6-one] | 7 nM
O=C1NCCn2c(-c3ccc(CNC4CCC4)cc3)nc3cccc1c32 [Example 188, 1-(4-Cyclobutylaminomethyl-phenyl)-8,9-dihydro-7H-2,7,9a-triaza-benzo[cd]azulen-6-one] | 4.8 nM
O=C1NCCn2c(-c3ccc(CNCc4cccs4)cc3)nc3cccc1c32 [Example 189, 1-(4-{[(Thiophen-2-ylmethyl)-amino]-methyl}-phenyl)-8,9-dihydro-7H-2,7,9a-triaza-benzo[cd]azulen-6-one] | 5.1 nM
CCCN(CCC)Cc1ccc(-c2nc3cccc4c3n2CCNC4=O)cc1 [Example 190, 1-(4-Dipropylaminomethyl-phenyl)-8,9-dihydro-7H-2,7,9a-triaza-benzo[cd]azulen-6-one] | 8.1 nM
O=C1NCCn2c(-c3ccc(CNCc4ccc5c(c4)OCO5)cc3)nc3cccc1c32 [Example 191, 1-(4-{[(Benzo[1,3]dioxol-5-ylmethyl)-amino]-methyl}-phenyl)-8,9-dihydro-7H-2,7,9a-triaza-benzo[cd]azulen-6-one] | 4.3 nM
O=C1NCCn2c(-c3ccc(CNC4CCc5ccccc54)cc3)nc3cccc1c32 (stereo not drawn) [Example 192, 1-[4-(Indan-1-ylaminomethyl)-phenyl]-8,9-dihydro-7H-2,7,9a-triaza-benzo[cd]azulen-6-one] | 4.5 nM
CCOC(=O)CCN(Cc1ccc(-c2nc3cccc4c3n2CCNC4=O)cc1)Cc1ccco1 [Example 193, 3-{[4-(6-oxo-6,7,8,9-Tetrahydro-2,7,9a-triaza-benzo[cd]azulen-1-yl)-benzyl]-furan-2-ylmethyl-amino}-propionic Acid Ethyl Ester] | 11 nM
CN1CCCC1CCNCc1ccc(-c2nc3cccc4c3n2CCNC4=O)cc1 (stereo not drawn) [Example 194, 1-(4-{[2-(1-Methyl-pyrrolidin-2-yl)-ethylamino]-methyl}-phenyl)-8,9-dihydro-7H-2,7,9a-triaza-benzo[cd]azulen-6-one] | 6.2 nM
Cc1ccc(CNCc2ccc(-c3nc4cccc5c4n3CCNC5=O)cc2)o1 [Example 195, 1-(4-{[(5-Methyl-furan-2-ylmethyl)-amino]-methyl}-phenyl)-8,9-dihydro-7H-2,7,9a-triaza-benzo[cd]azulen-6-one] | 4.7 nM and 5.9 nM
O=C1NCCn2c(-c3ccc(CNCc4ccccc4)cc3)nc3cccc1c32 [Example 196, 1-[4-(Benzylamino-methyl)-phenyl]-8,9-dihydro-7H-2,7,9a-triaza-benzo[cd]azulen-6-one] | 3.9 nM

Source: patent US6548494B1, “Tricyclic inhibitors of poly(ADP-ribose) polymerases” (Agouron Pharmaceuticals, Inc., priority 1999, dated 2003)
